Reference: patent publication US20260116921A1, “PEPTIDE INHIBITORS OF INTERLEUKIN-23 RECEPTOR AND THEIR USE TO TREAT INFLAMMATORY DISEASES” (priority 2018, published 2026)
Where two headings read alike, the source gives them in different places. Numbered stars: 1 amine (or outer) side, 2 acyl side, 3 side chain; on linkers, the order of the positions; unused ones are H or OH. Bridge positions count the residues as written; N and C are the ends. Square brackets hold non-standard residues; d marks the D form. Peptide text beside a SMILES is read from it. X3 = CCc1ccc2c(C[C@H](N[*:1])C(=O)[*:2])c[nH]c2c1; Trp(7-Me) = Cc1cccc2c(C[C@H](N)C(=O)O)c[nH]c12; Trp(2-Me) = Cc1[nH]c2ccccc2c1C[C@H](N)C(=O)O; 2Nal = N[C@@H](Cc1ccc2ccccc2c1)C(=O)O; d2Nal = N[C@H](Cc1ccc2ccccc2c1)C(=O)O; AEF = NCCOc1ccc(C[C@H](N)C(=O)O)cc1; Cit = NC(=O)NCCC[C@H](N)C(=O)O; Pen = CC(C)(S)[C@H](N)C(=O)O; αMeK = C[C@](N)(CCCCN)C(=O)O; Aib = CC(C)(N)C(=O)O

Key:
in vitro [1] = details: cynomolgus monkey, 20% fecal homogenate (supernatant), anaerobic, pH 6.8
Method: (§1) Fecal homogenate (20%) was prepared by adding 4 mL of growth medium (1 liter contains 2 g peptone water powder, 2 g yeast extract, 0.1 g NaCl, 0.04 g KH2PO4, 0.01 g CaCl2·6H2O, 0.01 g MgSO4·7H2O, 2 mL Tween 80, 0.5 g bile salts, 0.5 g L-cysteine HCl, 2 g NaHCO3, and 10 μL Vitamin K, pH adjusted to 6.8, and sterilized by filtration through a 0.22 μm filter) to every gram of feces (pooled freshly collected human or cynomolgus monkey feces). The suspension was vortexed to break up large clumps, and homogenized using a bead mill homogenizer. Centrifuged the homogenate at 2800×g for 15 min. The supernatant is taken out and used for incubations. DMSO stocks (10 mM) were first prepared for the test compounds. Incubations were performed in an anaerobic chamber conditioned at 37° C. Aliquots of the DMSO solutions were dosed into 1.0 mL aliquots of 20% fecal homogenate, which are pre-warmed to 37° C. The final test compound concentration was 20 μM. At each timepoint (0, 20 min, 1, 3, 6, or 24 hours), 100 μL aliquot of each incubation mixture is taken out and added to separate tubes containing 300 μL of 50% acetonitrile/50% methanol and an internal standard to terminate the reaction. Samples were taken out of the anaerobic chamber and stored at 4° C. until the end of the experiment. After the final timepoint is sampled, the tubes were mixed and then centrifuged at 3,000 rpm for 10 minutes. Aliquots of the supernatant were removed, diluted 1:1 into distilled water containing 0.1% formic acid, and analyzed by LC/MS/MS. Percent remaining at each timepoint was calculated based on the peak area response ratio of test to compound to internal standard. Time 0 was set to 100%, and all later timepoints were calculated relative to time 0. Half-lives were calculated by fitting to a first-order exponential decay equation using Graphpad or Excel.

IL-23R = target: T1, IL-23R (Homo sapiens, UniProt Q5VWK5); assay: DB cells IL23R pSTAT3 cell assay (pStat3 HTRF); format: cell-based
T1 sequence (Q5VWK5 24-629): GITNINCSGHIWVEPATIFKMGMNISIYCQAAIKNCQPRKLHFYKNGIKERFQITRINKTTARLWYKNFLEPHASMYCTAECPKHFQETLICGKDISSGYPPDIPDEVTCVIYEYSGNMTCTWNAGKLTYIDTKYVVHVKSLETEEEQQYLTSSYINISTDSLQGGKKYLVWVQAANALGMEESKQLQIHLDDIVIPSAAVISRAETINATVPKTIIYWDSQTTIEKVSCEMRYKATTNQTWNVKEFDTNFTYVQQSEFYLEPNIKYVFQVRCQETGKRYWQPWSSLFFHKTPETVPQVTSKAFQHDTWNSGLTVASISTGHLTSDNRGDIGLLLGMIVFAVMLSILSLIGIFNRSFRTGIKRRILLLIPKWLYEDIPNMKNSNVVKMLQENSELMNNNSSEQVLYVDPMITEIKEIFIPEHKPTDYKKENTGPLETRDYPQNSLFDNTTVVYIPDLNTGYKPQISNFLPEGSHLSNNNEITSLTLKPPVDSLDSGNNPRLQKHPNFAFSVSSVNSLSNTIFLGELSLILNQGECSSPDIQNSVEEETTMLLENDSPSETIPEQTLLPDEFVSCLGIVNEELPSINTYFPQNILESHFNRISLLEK
Text: Human ELISA indicates the IL23-IL23R competitive binding assay described below, Rat ELISA indicates the rat IL-23R competitive binding ELISA assay described below, and pStat3HTRF indicates the DB cells IL-23R pSTAT3 cell assay described below. The peptides depicted in Table E1 are cyclized via a disulfide bridge formed between two Pen residues in these peptides. The peptides depicted in Table E2 are cyclized via a thioether bond between the indicated amino acid residues. Table E2 provides an illustrative structure depicting thioether cyclization, which is indicated in the table by the term “cyclo,” with the cyclic region bracketed immediately following the term “cyclo.” For certain peptides, the residue Abu is present where indicated, whereas in other embodiments, e.g., those related to the non-cyclized form, the Abu may be referred to as a hSer(Cl) or homoSer residue.
DB Cells IL23R pSTAT3 Cell Assay
IL-23 plays a central role in supporting and maintaining Th17 differentiation in vivo. This process is thought to be mediated primarily through the Signal Transducer and Activator of Transcription 3 (STAT3), with phosphorylation of STAT3 (to yield pSTAT3) leading to upregulation of RORC and pro-inflammatory IL-17. This cell assay examines the levels of pSTAT3 in IL-23R-expressing DB cells when stimulated with IL-23 in the presence of test compounds. Serial dilutions of test peptides and IL-23 (Humanzyme #HZ-1261) at a final concentration of 0.5 nM, were added to each well in a 96 well tissue culture plate (Corning #CLS3894). DB cells (ATCC #CRL-2289), cultured in RPMI-1640 medium (Thermo Scientific #11875093) supplemented with 10% FBS, were added at 5×10E5 cells/well and incubated for 30 minutes at 37° C. in a 5% CO2 humidified incubator. Changes in phospho-STAT3 levels in the cell lysates were detected using the Cisbio HTRF pSTAT3 (Tyr705) Cellular Assay Kit (Cisbio #62AT3PEH), according to manufacturer's Two Plate Assay protocol.

in vitro [2] = details: human, 20% fecal homogenate (supernatant), anaerobic, pH 6.8
Method: as §1

[3] = Table E3, DB cells, IL-23 0.5 nM, 30 minutes at 37° C., read-out: pStat3 HTRF (IC50)

SMILES	half-life at 20 μM (in vitro [1]) [h]	IC50 (IL-23R) [nM]	IC50 (IL-23R; [3]) [nM]	half-life at 20 μM (in vitro [2]) [h]
CC(=O)N[C@H](CCCNC(=N)N)C(=O)N[C@H]1CCSC[C@@H](C(=O)N[C@@H](Cc2ccc(OCCN)cc2)C(=O)N[C@@H](Cc2ccc3ccccc3c2)C(=O)NC2(C(=O)N[C@@H](CCC(=O)O)C(=O)N[C@@H](CC(N)=O)C(=O)N[C@@H](CC(N)=O)C(N)=O)CCOCC2)NC(=O)[C@H](CCC(N)=O)NC(=O)[C@H](Cc2c[nH]c3c(C)cccc23)NC(=O)[C@H]([C@@H](C)O)NC(=O)[C@H](CCC(N)=O)NC1=O [compound 27]	3	< 1		
CC(=O)NCCCC[C@H](NC(=O)[C@](C)(CC(C)C)NC(=O)[C@H](Cc1ccc2ccccc2c1)NC(=O)[C@H](Cc1ccc(OCCN)cc1)NC(=O)[C@H]1NC(=O)[C@H](CCC(N)=O)NC(=O)[C@H](Cc2c[nH]c3c(C)cccc23)NC(=O)[C@H]([C@@H](C)O)NC(=O)[C@H](CC(N)=O)NC(=O)[C@@H](NC(C)=O)C(C)(C)SSC1(C)C)C(=O)N1CCC[C@@H]1C(=O)NCCC(N)=O [compound 212]	> 24		10 to 100	> 24
CC(=O)NCCCC[C@H](NC(=O)[C@](C)(CC(C)C)NC(=O)[C@H](Cc1ccc2ccccc2c1)NC(=O)[C@H](Cc1ccc(OCCN)cc1)NC(=O)[C@H]1NC(=O)[C@H](CCC(N)=O)NC(=O)[C@H](Cc2c[nH]c3c(C)cccc23)NC(=O)[C@H]([C@@H](C)O)NC(=O)[C@H](CC(N)=O)NC(=O)[C@@H](NC(C)=O)C(C)(C)SSC1(C)C)C(=O)N[C@H](CO)C(=O)NCCC(N)=O [compound 222]	> 24		1 to 10	> 24
COc1cccc2[nH]cc(C[C@@H]3NC(=O)[C@H]([C@@H](C)O)NC(=O)[C@H](CC(N)=O)NC(=O)[C@@H](NC(C)=O)C(C)(C)SSC(C)(C)[C@@H](C(=O)N[C@@H](Cc4ccc(OCCN)cc4)C(=O)N[C@@H](Cc4ccc5ccccc5c4)C(=O)N[C@@](C)(CCCCN)C(=O)N[C@@H](CCCCNC(C)=O)C(=O)N[C@@H](CC(N)=O)C(=O)NCCC(N)=O)NC(=O)[C@H](CCC(N)=O)NC3=O)c12 [compound 229]	7		10 to 100	> 24
CC(=O)NCCCC[C@H](NC(=O)[C@](C)(CCCCN)NC(=O)[C@H](Cc1ccc2ccccc2c1)NC(=O)[C@H](Cc1ccc(OCCN)cc1)NC(=O)[C@H]1NC(=O)[C@H](CCC(N)=O)NC(=O)[C@H](Cc2c[nH]c3cc(C)ccc23)NC(=O)[C@H]([C@@H](C)O)NC(=O)[C@H](CC(N)=O)NC(=O)[C@@H](NC(C)=O)C(C)(C)SSC1(C)C)C(=O)N[C@@H](CC(N)=O)C(=O)NCCC(N)=O [compound 230]	10		10 to 100	> 24
CC(=O)NCCCC[C@H](NC(=O)[C@](C)(CCCCN)NC(=O)[C@H](Cc1ccc2ccccc2c1)NC(=O)[C@H](Cc1ccc(OCCN)cc1)NC(=O)[C@H]1NC(=O)[C@H](CCC(N)=O)NC(=O)[C@H](Cc2c[nH]c3cccc(C)c23)NC(=O)[C@H]([C@@H](C)O)NC(=O)[C@H](CC(N)=O)NC(=O)[C@@H](NC(C)=O)C(C)(C)SSC1(C)C)C(=O)N[C@@H](CC(N)=O)C(=O)NCCC(N)=O [compound 231]	15		1 to 10	> 24
CC(=O)NCCCC[C@H](NC(=O)[C@](C)(CCCCN)NC(=O)[C@H](Cc1ccc2ccccc2c1)NC(=O)[C@H](Cc1ccc(OCCN)cc1)NC(=O)[C@H]1NC(=O)[C@H](CCCNC(N)=O)NC(=O)[C@H](Cc2c[nH]c3c(C)cccc23)NC(=O)[C@H]([C@@H](C)O)NC(=O)[C@H](CC(N)=O)NC(=O)[C@@H](NC(C)=O)C(C)(C)SSC1(C)C)C(=O)N[C@@H](CC(N)=O)C(=O)NC(C)(C)C(=O)N[C@H](CCCCN)C(N)=O [compound 344] (Ac-[Pen]NT[Trp(7-Me)][Cit][Pen][AEF][2Nal][αMeK]K(Ac)N[Aib][dK]-NH2; disulfide 1-6)			< 1	
CC(=O)NCCCC[C@H](NC(=O)[C@](C)(CCCCN)NC(=O)[C@H](Cc1ccc2ccccc2c1)NC(=O)[C@H](Cc1ccc(OCCN)cc1)NC(=O)[C@H]1NC(=O)[C@H](CCCNC(N)=O)NC(=O)[C@H](Cc2c[nH]c3c(C)cccc23)NC(=O)[C@H]([C@@H](C)O)NC(=O)[C@H](CC(N)=O)NC(=O)[C@@H](NC(C)=O)C(C)(C)SSC1(C)C)C(=O)N[C@@H](CC(N)=O)C(=O)NC(C)(C)C(=O)N[C@H](Cc1ccccc1)C(N)=O [compound 346] (Ac-[Pen]NT[Trp(7-Me)][Cit][Pen][AEF][2Nal][αMeK]K(Ac)N[Aib][dF]-NH2; disulfide 1-6)			< 1	
CC(=O)NCCCC[C@H](NC(=O)[C@](C)(CCCCN)NC(=O)[C@H](Cc1ccc2ccccc2c1)NC(=O)[C@H](Cc1ccc(OCCN)cc1)NC(=O)[C@H]1NC(=O)[C@H](CCCNC(N)=O)NC(=O)[C@H](Cc2c[nH]c3c(C)cccc23)NC(=O)[C@H]([C@@H](C)O)NC(=O)[C@H](CC(N)=O)NC(=O)[C@@H](NC(C)=O)C(C)(C)SSC1(C)C)C(=O)N[C@@H](CC(N)=O)C(=O)NC(C)(C)C(=O)N[C@H](Cc1ccc(O)cc1)C(N)=O [compound 347] (Ac-[Pen]NT[Trp(7-Me)][Cit][Pen][AEF][2Nal][αMeK]K(Ac)N[Aib][dY]-NH2; disulfide 1-6)			< 1	
CC(=O)NCCCC[C@H](NC(=O)[C@](C)(CCCCN)NC(=O)[C@H](Cc1ccc2ccccc2c1)NC(=O)[C@H](Cc1ccc(OCCN)cc1)NC(=O)[C@H]1NC(=O)[C@H](CCCNC(N)=O)NC(=O)[C@H](Cc2c[nH]c3c(C)cccc23)NC(=O)[C@H]([C@@H](C)O)NC(=O)[C@H](CC(N)=O)NC(=O)[C@@H](NC(C)=O)C(C)(C)SSC1(C)C)C(=O)N[C@@H](CC(N)=O)C(=O)NC(C)(C)C(=O)N[C@H](Cc1ccc2ccccc2c1)C(N)=O [compound 348] (Ac-[Pen]NT[Trp(7-Me)][Cit][Pen][AEF][2Nal][αMeK]K(Ac)N[Aib][d2Nal]-NH2; disulfide 1-6)			1 to 10	
CCc1ccc2c(C[C@@H]3NC(=O)[C@H]([C@@H](C)O)NC(=O)[C@H](CC(N)=O)NC(=O)[C@@H](NC(C)=O)C(C)(C)SSC(C)(C)[C@@H](C(=O)N[C@@H](Cc4ccc(OCCN)cc4)C(=O)N[C@@H](Cc4ccc5ccccc5c4)C(=O)N[C@@](C)(CCCCN)C(=O)N[C@@H](CCCCNC(C)=O)C(=O)N[C@@H](CC(N)=O)C(=O)N[C@H](CCCCN)C(N)=O)NC(=O)[C@H](CCCCNC(C)=O)NC3=O)c[nH]c2c1 [compound 349] (Ac-[Pen]NT[X3]K(Ac)[Pen][AEF][2Nal][αMeK]K(Ac)N[dK]-NH2; disulfide 1-6)		1 to 10		
CC(=O)NCCCC[C@@H]1NC(=O)[C@H](Cc2c[nH]c3c(C)cccc23)NC(=O)[C@H]([C@@H](C)O)NC(=O)[C@H](CC(N)=O)NC(=O)[C@@H](NC(C)=O)C(C)(C)SSC(C)(C)[C@@H](C(=O)N[C@@H](Cc2ccc(OCCN)cc2)C(=O)N[C@@H](Cc2ccc3ccccc3c2)C(=O)N[C@@](C)(CCCCN)C(=O)N[C@@H](CCCCNC(C)=O)C(=O)N[C@@H](CO)C(=O)N[C@H](CCCCN)C(N)=O)NC1=O [compound 352]		1 to 10		
CC(=O)NCCCC[C@@H]1NC(=O)[C@H](Cc2c[nH]c3c(C)cccc23)NC(=O)[C@H]([C@@H](C)O)NC(=O)[C@H](CC(N)=O)NC(=O)[C@@H](NC(C)=O)C(C)(C)SSC(C)(C)[C@@H](C(=O)N[C@@H](Cc2ccc(OCCN)cc2)C(=O)N[C@@H](Cc2c(C)[nH]c3ccccc23)C(=O)N[C@@](C)(CCCCN)C(=O)N[C@@H](CCCCNC(C)=O)C(=O)N[C@@H](CC(N)=O)C(=O)N[C@H](CCCCN)C(N)=O)NC1=O [compound 353] (Ac-[Pen]NT[Trp(7-Me)]K(Ac)[Pen][AEF][Trp(2-Me)][αMeK]K(Ac)N[dK]-NH2; disulfide 1-6)			< 1	
